Results on nine compounds are retold here after US20240287138A1, “CYCLIC PEPTIDES FOR INHIBITING TNF RECEPTOR 1 ACTIVITY” (Merck Sharp & Dohme LLC, priority 2023, published 2024).

Numbered stars: 1 amine (or outer) side, 2 acyl side, 3 side chain; on linkers, the order of the positions; unused ones are H or OH. Bridge positions count the residues as written; N and C are the ends. Square brackets hold non-standard residues; d marks the D form. Peptide text beside a SMILES is read from it. * marks the point of attachment. Trp(βS-Me,7-OMe) = COc1cccc2c([C@H](C)[C@H](N)C(=O)O)c[nH]c12; X5 = COc1cccc2[nH]cc([C@H](C)[C@H](N[*:1])C(=O)[*:2])c12; X24 = O=C(O)c1ccc([C@@H](O)[C@H](N[*:1])C(=O)[*:2])cc1; Morpholine(3S-CO,6,6-Me2) = CC1(C)CN[C@H](C(=O)O)CO1; Trp(7-CN) = N#Cc1cccc2c(C[C@H](N)C(=O)O)c[nH]c12; Trp(7-Cl) = N[C@@H](Cc1c[nH]c2c(Cl)cccc12)C(=O)O; Phe(3-CONH2) = NC(=O)c1cccc(C[C@H](N)C(=O)O)c1; Phe(4-CONH2) = NC(=O)c1ccc(C[C@H](N)C(=O)O)cc1; Phe(4-COOH) = N[C@@H](Cc1ccc(C(=O)O)cc1)C(=O)O; 4Pal(3S-Me) = C[C@@H](c1ccncc1)[C@H](N)C(=O)O; Trp(7-aza) = N[C@@H](Cc1c[nH]c2ncccc12)C(=O)O; Phe(4-CH2NH2) = NCc1ccc(C[C@H](N)C(=O)O)cc1; Pip(5R-OH) = O=C(O)[C@@H]1CC[C@@H](O)CN1; αMeW = C[C@](N)(Cc1c[nH]c2ccccc12)C(=O)O; X1 = O=C([C@@H]1CC[C@H](N[*:1])C1)[*:2]; Pip(4-aza) = O=C(O)[C@@H]1CNCCN1; 4Pal = N[C@@H](Cc1ccncc1)C(=O)O; NMeE = CN[C@@H](CCC(=O)O)C(=O)O; dHyp = O=C(O)[C@H]1C[C@H](O)CN1; aThr = C[C@H](O)[C@H](N)C(=O)O; Ahp(2) = CCCCC[C@H](N)C(=O)O; NMeS = CN[C@@H](CO)C(=O)O; αMeS = C[C@](N)(CO)C(=O)O; Carboxymethyl = O=C(O)C*; Nle = CCCC[C@H](N)C(=O)O; Sar = CNCC(=O)O

Assay [1] has as its target T1, human soluble TNFR1 (sTNFR1) (Homo sapiens, UniProt P19438).
T1 construct: made in house; host or cells: Sf21 (baculovirus)
T1 sequence (P19438 with tags, fused parts or gaps): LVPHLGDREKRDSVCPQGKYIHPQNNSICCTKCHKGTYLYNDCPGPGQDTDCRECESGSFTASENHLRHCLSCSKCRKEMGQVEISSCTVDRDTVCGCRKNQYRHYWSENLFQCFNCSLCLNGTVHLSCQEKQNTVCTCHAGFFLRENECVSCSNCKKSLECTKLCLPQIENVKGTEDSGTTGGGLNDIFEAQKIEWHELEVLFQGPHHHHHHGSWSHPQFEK
As to the kind of experiment: Human sTNFR1-peptide displacement assay (LanthaScreen Eu TR-FRET binding assay). The procedure, abridged:
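Readout is the 665/615 nm TR-FRET ratio (Eu anti-His donor, streptavidin-Alexa647 acceptor), normalized to DMSO and saturating displacer, fit by Morrison-based five-parameter logistic for Kd^app. His-tagged sTNFR1 (1-211) prebound to 100 nM biotinylated peptide SEQ ID NO.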

The target in another assay is T2, human TNFR2 ECD protein (Homo sapiens, UniProt P20333).
T2 construct: HRV 3C protease cleavage site (C); 6His (C, cleaved yes); made in house; host or cells: Sf21 insect cells (baculovirus), secreted
T2 sequence (P20333 23-257): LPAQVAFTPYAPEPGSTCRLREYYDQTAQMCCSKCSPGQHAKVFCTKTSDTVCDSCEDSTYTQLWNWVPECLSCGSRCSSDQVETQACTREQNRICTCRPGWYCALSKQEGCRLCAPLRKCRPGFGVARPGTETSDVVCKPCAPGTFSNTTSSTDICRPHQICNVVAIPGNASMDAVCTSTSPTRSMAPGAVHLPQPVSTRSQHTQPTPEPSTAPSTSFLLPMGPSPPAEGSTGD
As to the kind of experiment: SPR off-target binding (selectivity) to human TNFR2 ECD. The procedure, abridged: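 Insect-cell human receptor ECDs, enzymatically biotinylated, immobilized via streptavidin capture chip. Peptide binding and dissociation measured in RU in pH 7.4 HEPES buffer containing 2% DMSO; chip regenerated per analyte. Rate constants give affinity.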

In assay [1], `CCCC[C@@H]1NC(=O)CSC[C@@H](C(N)=O)NC(=O)[C@H]([C@@H](C)c2c[nH]c3c(OC)cccc23)NC(=O)CN(C)C(=O)[C@H](Cc2ccc(O)cc2)NC(=O)[C@H](Cc2ccc(C(=O)O)cc2)NC(=O)[C@](C)(CO)NC(=O)[C@H](Cc2c[nH]c3c(Cl)cccc23)NC(=O)[C@H](Cc2ccc(OCC(=O)O)cc2)NC(=O)[C@H](CC(N)=O)NC(=O)[C@H](CCC(=O)O)N(C)C(=O)[C@H](Cc2c[nH]c3ccccc23)NC(=O)[C@@H]2COC(C)(C)CN2C(=O)[C@H](Cc2ccncc2)NC1=O` [SEQ ID NO. 179] ({CH2CO}-[Nle][4Pal][Morpholine(3S-CO,6,6-Me2)]W[NMeE]NY(Carboxymethyl)[Trp(7-Cl)][αMeS][Phe(4-COOH)]Y[Sar][Trp(βS-Me,7-OMe)]C-NH2; thioether N-14) displayed a half-maximal inhibitory concentration (IC50) of 0.5 nM and a Kd of 0.29 nM. The Kd on human TNFR2 ECD protein was more than 1000 nM.

Regarding `CCCC[C@@H]1NC(=O)CSC[C@@H](C(N)=O)NC(=O)[C@H]([C@@H](C)c2c[nH]c3c(OC)cccc23)NC(=O)CN(C)C(=O)[C@H](Cc2ccc(O)cc2)NC(=O)[C@H](Cc2ccc(C(=O)O)cc2)NC(=O)[C@](C)(CO)NC(=O)[C@H](Cc2c[nH]c3c(Cl)cccc23)NC(=O)[C@H](Cc2ccncc2)NC(=O)[C@H](CC(N)=O)NC(=O)[C@H](CCC(=O)O)N(C)C(=O)[C@H](Cc2c[nH]c3ncccc23)NC(=O)[C@H](CO)NC(=O)[C@H]([C@@H](C)c2ccncc2)NC1=O` [SEQ ID NO. 180] ({CH2CO}-[Nle][4Pal(3S-Me)]S[Trp(7-aza)][NMeE]N[4Pal][Trp(7-Cl)][αMeS][Phe(4-COOH)]Y[Sar][Trp(βS-Me,7-OMe)]C-NH2; thioether N-14), in assay [1], the concentration for half-maximal inhibition (IC50) is 0.3 nM and the Kd worked out at 0.18 nM. In addition, the Kd on human TNFR2 ECD protein is more than 1000 nM.

In the case of `CCCC[C@@H]1NC(=O)[C@@H]2CC[C@@H](C2)NC(=O)[C@H]([C@@H](C)c2c[nH]c3c(OC)cccc23)NC(=O)CN(C)C(=O)[C@H](Cc2ccc(C(=O)O)cc2)NC(=O)[C@H](Cc2ccc(C(N)=O)cc2)NC(=O)[C@](C)(CO)NC(=O)[C@H](Cc2c[nH]c3c(Cl)cccc23)NC(=O)[C@H](Cc2ccncc2)NC(=O)[C@H]([C@H](C)O)NC(=O)[C@H]2C[C@H](O)CN2C(=O)[C@H](Cc2c[nH]c3ccccc23)NC(=O)[C@@H]2CC[C@@H](O)CN2C(=O)[C@H](Cc2ccncc2)NC1=O` [SEQ ID NO. 187] (cyclo([4Pal][Trp(7-Cl)][αMeS][Phe(4-CONH2)][Phe(4-COOH)][Sar][Trp(βS-Me,7-OMe)][X1][Nle][4Pal][Pip(5R-OH)]W[dHyp][aThr])), the Kd in assay [1] was 0.09 nM; at human TNFR2 ECD protein, more than 1000 nM.

Turning to `CCCC[C@@H]1NC(=O)[C@@H]2CC[C@@H](C2)NC(=O)[C@H]([C@@H](C)c2c[nH]c3c(OC)cccc23)NC(=O)CN(C)C(=O)[C@H]([C@H](O)c2ccc(C(=O)O)cc2)NC(=O)[C@H](Cc2ccc(C(N)=O)cc2)NC(=O)[C@](C)(CO)NC(=O)[C@H](Cc2c[nH]c3c(Cl)cccc23)NC(=O)[C@H](Cc2ccncc2)NC(=O)[C@H](CC(N)=O)NC(=O)[C@H]2C[C@H](O)CN2C(=O)[C@H](Cc2c[nH]c3ccccc23)NC(=O)[C@@H]2CC[C@@H](O)CN2C(=O)[C@H](Cc2ccncc2)NC1=O` [SEQ ID NO. 188] (cyclo([4Pal][Trp(7-Cl)][αMeS][Phe(4-CONH2)][X24][Sar][Trp(βS-Me,7-OMe)][X1][Nle][4Pal][Pip(5R-OH)]W[dHyp]N)), the results for the equilibrium dissociation constant (Kd) (in assay [1]; at human TNFR2 ECD protein) were 0.1 nM and more than 1000 nM, respectively.

As to `CCCC[C@@H]1NC(=O)[C@@H]2CC[C@@H](C2)NC(=O)[C@H]([C@@H](C)c2c[nH]c3c(OC)cccc23)NC(=O)CN(C)C(=O)[C@H](Cc2ccc(C(N)=O)cc2)NC(=O)[C@H](Cc2ccc(C(N)=O)cc2)NC(=O)[C@](C)(CO)NC(=O)[C@H](Cc2c[nH]c3c(Cl)cccc23)NC(=O)[C@H](Cc2ccncc2)NC(=O)[C@H](CC(N)=O)NC(=O)[C@H](CCC(=O)O)N(C)C(=O)[C@H](Cc2c[nH]c3ncccc23)NC(=O)[C@@H]2CC[C@@H](O)CN2C(=O)[C@H](Cc2ccncc2)NC1=O` [SEQ ID NO. 189] (cyclo([4Pal][Trp(7-Cl)][αMeS][Phe(4-CONH2)][Phe(4-CONH2)][Sar][Trp(βS-Me,7-OMe)][X1][Nle][4Pal][Pip(5R-OH)][Trp(7-aza)][NMeE]N)), the results for the Kd (in assay [1]; at human TNFR2 ECD protein) were 0.01 nM and more than 1000 nM, respectively.

In the case of `CCCCC[C@@H]1NC(=O)[C@@H]2CC[C@@H](C2)NC(=O)[C@H]([C@@H](C)c2c[nH]c3c(OC)cccc23)NC(=O)CN(C)C(=O)[C@H](Cc2ccc(OC)cc2)NC(=O)[C@H](Cc2ccc(C(N)=O)cc2)NC(=O)[C@](C)(CO)NC(=O)[C@H](Cc2c[nH]c3c(C#N)cccc23)NC(=O)[C@H](Cc2ccncc2)NC(=O)[C@H](CC(N)=O)NC(=O)[C@H]2C[C@H](O)CN2C(=O)[C@H](Cc2c[nH]c3ccccc23)NC(=O)[C@@H]2CNCCN2C(=O)[C@H](Cc2ccncc2)NC1=O` [SEQ ID NO. 200] (cyclo([4Pal][Trp(7-CN)][αMeS][Phe(4-CONH2)]Y(Me)[Sar][Trp(βS-Me,7-OMe)][X1][Ahp(2)][4Pal][Pip(4-aza)]W[dHyp]N)), the dissociation constant (Kd) in assay [1] was 0.09 nM; on human TNFR2 ECD protein, more than 1000 nM.

Regarding `CCCC[C@@H]1NC(=O)CSC[C@@H](C(N)=O)NC(=O)[C@H]([C@@H](C)c2c[nH]c3c(OC)cccc23)NC(=O)CN(C)C(=O)[C@H](Cc2ccc(O)cc2)NC(=O)[C@H](Cc2ccc(C(=O)O)cc2)NC(=O)[C@](C)(CO)NC(=O)[C@H](Cc2c[nH]c3c(Cl)cccc23)NC(=O)[C@H](Cc2ccncc2)NC(=O)[C@H](CC(N)=O)NC(=O)[C@H]2CCCN2C(=O)[C@H](Cc2c[nH]c3ccccc23)NC(=O)[C@@H]2CC[C@@H](O)CN2C(=O)[C@H](Cc2ccncc2)NC1=O` [SEQ ID NO. 203] ({CH2CO}-[Nle][4Pal][Pip(5R-OH)]W[dP]N[4Pal][Trp(7-Cl)][αMeS][Phe(4-COOH)]Y[Sar][Trp(βS-Me,7-OMe)]C-NH2; thioether N-14), the Kd in assay [1] was 0.31 nM; at human TNFR2 ECD protein, more than 1000 nM.

On to `CCCC[C@@H]1NC(=O)CSC[C@@H](C(N)=O)NC(=O)[C@](C)(Cc2c[nH]c3ccccc23)NC(=O)CN(C)C(=O)[C@H](Cc2ccc(O)cc2)NC(=O)[C@H](Cc2cccc(C(N)=O)c2)NC(=O)[C@](C)(CO)NC(=O)[C@H](Cc2c[nH]c3c(Cl)cccc23)NC(=O)[C@H](Cc2ccncc2)NC(=O)[C@H](CC(N)=O)NC(=O)[C@H](CCC(=O)O)N(C)C(=O)[C@H](Cc2c[nH]c3ncccc23)NC(=O)[C@H](CO)NC(=O)[C@H](Cc2ccc(CN)cc2)NC1=O` [SEQ ID NO. 205] ({CH2CO}-[Nle][Phe(4-CH2NH2)]S[Trp(7-aza)][NMeE]N[4Pal][Trp(7-Cl)][αMeS][Phe(3-CONH2)]Y[Sar][αMeW]C-NH2; thioether N-14), for which the Kd in assay [1] is 1.01 nM; at human TNFR2 ECD protein it was more than 1000 nM.

Consider `CCCC[C@@H]1NC(=O)CSC[C@@H](C(N)=O)NC(=O)[C@H]([C@@H](C)c2c[nH]c3cccc(OC)c23)NC(=O)CN(C)C(=O)[C@H](Cc2ccc(O)cc2)NC(=O)[C@H](Cc2ccc(C(N)=O)cc2)NC(=O)[C@](C)(CO)NC(=O)[C@H](Cc2c[nH]c3c(Cl)cccc23)NC(=O)[C@H](Cc2ccc(C(=O)O)cc2)NC(=O)[C@H](CC(N)=O)NC(=O)[C@H](CCC(=O)O)N(C)C(=O)[C@H](Cc2c[nH]c3ncccc23)NC(=O)[C@H](CO)N(C)C(=O)[C@H](Cc2ccncc2)NC1=O` [SEQ ID NO. 209] ({CH2CO}-[Nle][4Pal][NMeS][Trp(7-aza)][NMeE]N[Phe(4-COOH)][Trp(7-Cl)][αMeS][Phe(4-CONH2)]Y[Sar][X5]C-NH2; thioether N-14), for which, in assay [1], the IC50 came out at 0.6 nM and the equilibrium dissociation constant (Kd) worked out at 0.67 nM. Also, the equilibrium dissociation constant (Kd) at human TNFR2 ECD protein is more than 1000 nM.
